Experimental data published in PubChem BioAssay (NCI).
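96-well plates; 48 h exposure; 5 concentrations. Endpoints by linear interpolation between flanking doses. Not reached: highest tested concentration assigned. GI50 = concentration required for 50% inhibition of growth. The concentration for full growth arrest is given as TGI.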 Where a SMILES comes first, the peptide text is derived from it. Bridges are numbered along the chain shown (N, C = ends).

What was measured:
Assay in all cases: NCI-60 cell line screen, 48 h
[1] = test system: UO-31 renal
[2] = test system: HS 578T breast
[3] = test system: SNB-75 CNS
[4] = test system: IGROV1 ovarian
[5] = test system: NCI-H522 lung
[6] = test system: A549 NSCLC
[7] = test system: SK-MEL-5 melanoma
[8] = test system: RXF 393 renal
[9] = test system: U251 CNS
[10] = test system: M14 melanoma

| SMILES | GI50 [1] | TGI [1] | GI50 [2] | TGI [2] | GI50 [3] | TGI [3] | GI50 [4] | TGI [4] | GI50 [5] | TGI [5] | GI50 [6] | TGI [6] | GI50 [7] | TGI [7] | GI50 [8] | TGI [8] | GI50 [9] | TGI [9] | GI50 [10] | TGI [10] |
| --- | --- | --- | --- | --- | --- | --- | --- | --- | --- | --- | --- | --- | --- | --- | --- | --- | --- | --- | --- | --- |
| CCN(CC)CCNc1ccc(N=Nc2cnc3ccccc3c2)c2ccccc12 | 1.51 µM | 3.05 µM | 2.62 µM | 7.3 µM | 1.36 µM | 2.89 µM | 1.67 µM | 3.77 µM | 1.91 µM | 3.54 µM | 1.92 µM | 3.5 µM | 1.67 µM | 3.03 µM | 1.88 µM | 4.05 µM | 1.7 µM | 3.2 µM | 1.79 µM | 3.29 µM |
| CN(C)c1ccc2cc3c(cc2c1)Oc1ccccc1N3.[Cl][Zn][Cl] | 1.44 µM | 3.3 µM | 24.7 µM | > 100 µM | 11.4 µM | 24.2 µM | 12.8 µM | 33.8 µM | 1.94 µM | 4.94 µM | 20.9 µM | 51.5 µM | 3.16 µM | 11.9 µM | 3.28 µM | 9.01 µM |  |  | 4.73 µM | 18 µM |
| COc1cc(C(=O)c2cnc(-c3ccc4cc[nH]c4c3)[nH]2)cc(OC)c1OC | 0.153 µM | 5.11 µM | 0.0461 µM | > 86.9 µM |  |  | 0.0997 µM | 16.7 µM | < 0.0128 µM | 0.0913 µM | 0.0523 µM | 11.7 µM | 0.0385 µM | 0.389 µM |  |  | 0.0393 µM | 11 µM |  |  |
| CCOP(=O)(OCC)C(NC(c1ccccc1)c1ccccc1)c1ccsc1 (centres undefined) | 33.1 µM | > 100 µM | 29.7 µM | 66.3 µM |  |  | 37.6 µM | > 100 µM | 25.2 µM | 74.5 µM | 24.7 µM | 76.9 µM | 18.4 µM | 35.1 µM |  |  |  |  | 16.5 µM | 30.5 µM |
| C=C1CCCC2OC(OC)CCC12 (centres undefined) |  | > 100 µM |  |  |  | > 100 µM |  | > 100 µM |  | > 100 µM |  | > 100 µM |  | > 100 µM |  | > 100 µM |  | > 100 µM |  | > 100 µM |
| CCCc1nn(C)c(CCC(=O)N(Cc2ccccc2)Cc2ccccc2)c1CC |  | > 100 µM |  |  |  | > 100 µM |  | > 100 µM |  | > 100 µM |  | > 100 µM |  | > 100 µM |  | > 100 µM |  | > 100 µM |  | > 100 µM |
| CCCCCC1CC=CC(NC(=O)OCc2ccccc2)C1/C=C/CCCC1OCCO1 (centres undefined) |  | 72.2 µM |  |  |  | > 100 µM |  | > 100 µM |  | > 100 µM |  | > 100 µM |  | > 100 µM |  | > 100 µM |  | > 100 µM |  | > 100 µM |
| NS(=O)(=O)c1ccc(-n2nc(-c3ccccc3)cc2-c2cc(O)ccc2O)cc1 | > 100 µM | > 100 µM | > 100 µM | > 100 µM |  |  | > 100 µM | > 100 µM | > 100 µM | > 100 µM | > 100 µM | > 100 µM | > 100 µM | > 100 µM | > 100 µM | > 100 µM | 46.4 µM | > 100 µM | 31.9 µM | 80.8 µM |
| CCN(CC)CCCNc1nccc2c(C)c3[nH]c4ccncc4c(=O)c3cc12 |  | 43.4 µM |  |  |  | 12.6 µM |  | 21.7 µM |  | 1.86 µM |  | 14.2 µM |  | 14.1 µM |  | 3.18 µM |  | 11.8 µM |  | 9.64 µM |
| CCC(C)C1NC(=O)C(CC(C)C)NC(=O)C(C(C)C)NC(=O)C2CSSCC(NC1=O)C(=O)N2 (centres undefined) (cyclo(CCVLI); disulfide 1-2; configuration not given here) |  | 5.84 µM |  | 0.271 µM |  | 0.238 µM |  | 0.309 µM |  | 0.355 µM |  | 0.399 µM |  | 0.293 µM |  |  |  | 0.149 µM |  | 1.01 µM |
| O=c1oc2c(O)c(O)cc3c(=O)oc4c(O)c(O)cc1c4c23 |  | > 100 µM |  |  |  | 90.3 µM |  | > 100 µM |  | 43.1 µM |  | > 100 µM | > 100 µM | > 100 µM | > 100 µM | > 100 µM |  | 79 µM |  | > 100 µM |
| C=C(C)C1CC=C(C)C(O)([C@@]2(O)C[C@H](C(=C)C)CC=C2C)C1 (some centres undefined) |  | 55.9 µM |  |  |  | 54.2 µM |  | 53.4 µM |  | 41.5 µM |  | > 100 µM |  | 28.3 µM |  | 29.1 µM |  | 34.7 µM |  | 39.9 µM |
| CC[C@@]1(O)C(=O)OCc2c1cc1n(c2=O)Cc2cc3cccc(N)c3nc2-1 | 8.44 µM | > 100 µM |  |  | 2.72 µM | 16.1 µM | 11.5 µM | 38.8 µM | 3.92 µM | > 100 µM | 7.32 µM | > 100 µM | 8.75 µM | > 100 µM | 7.1 µM | 94.7 µM | 3.03 µM | 18.8 µM | 9.27 µM | > 100 µM |
| CCC1=CCC(P(=O)(c2ccccc2)c2ccccc2)CC1C (centres undefined) |  | 60.5 µM |  |  |  | 49.7 µM |  | > 100 µM |  | 47.4 µM |  | > 100 µM |  | 70.8 µM |  | > 100 µM |  | > 100 µM |  | > 100 µM |
| CC1(C)C2=CCCC(=O)[C@@]2(C)CC[C@@H]1O |  | > 100 µM |  |  |  | > 100 µM |  | > 100 µM |  | > 100 µM |  | > 100 µM |  | > 100 µM |  | > 100 µM |  | > 100 µM |  | > 100 µM |
| CCCCCCCCCCCCCC(=O)NO |  | 25.3 µM |  |  |  | 40 µM |  | 38.3 µM |  | 19.5 µM |  | 42.9 µM |  | 26.5 µM |  | 19 µM |  | 33.8 µM |  | 36.2 µM |
| Cn1c2ccccc2c2c(=O)n(CCCC(=O)NCCc3cnc[nH]3)c3c(-c4ccccc4)nnn3c21 | 7.46 µM | 14.8 µM | 10.4 µM | 22.6 µM | 10.4 µM | 18.6 µM |  |  |  |  | 12.8 µM | 24.2 µM | 9.09 µM | 17.2 µM | 7.41 µM | 18.2 µM | 9.46 µM | 18.4 µM | 11.9 µM | 24.3 µM |
| COc1ccc(C(=O)Nc2ccn(CCOC(=O)c3ccc(OC)cc3)c(=O)n2)cc1 |  | > 100 µM |  |  |  | > 100 µM |  | > 100 µM |  | > 100 µM |  | > 100 µM |  | > 100 µM |  | 54.3 µM |  | > 100 µM |  | > 100 µM |
